Measured values as given in the NIST ThermoML archive (doi:10.1016/j.jct.2014.04.025).
Numbers after ± are expanded uncertainties.

Conditions: 101.33 kPa, Liquid, Vibrating tube method

Row | SMILES | mass density (298.15 K) [kg/m3] | further results
1 | CCCC[N+]1(C)CCCC1.N#CC(=C=[N-])C#N [1-butyl-1-methylpyrrolidinium tricyanomethanide] | 1006.91 ± 1.3 | 
2 | CCCC[N+]1(C)CCCC1.O=S(=O)([O-])C(F)(F)F [1-butyl-1-methylpyrrolidinium trifluoromethanesulfonate] | 1252.75 ± 1.1 | 
3 | CCCCCCn1cc[n+](C)c1.N#C[B-](C#N)(C#N)C#N [1-hexyl-3-methylimidazolium tetracyanoborate] |  | mass density (308.15 K): 983.03 ± 1 kg/m3
4 | CC(C)=O [acetone] | 785.32 ± 1 | 
5 | c1ccc2sccc2c1 [benzo[b]thiophene] |  | mass density (308.15 K): 1150.81 ± 1 kg/m3; mass density (318.15 K): 1141.83 ± 1 kg/m3; mass density (328.15 K): 1132.85 ± 1 kg/m3
6 | CCCCCCC [heptane] | 679.54 ± 1 | 

The next lines start with results.

Row | mass density (298.15 K) [kg/m3] | SMILES | further results
7 | 799.52 ± 1 | CCCO [propan-1-ol] | 
8 | 1058.92 ± 1 | c1ccsc1 [thiophene] | 
